Test results from patent EP4588510A1, “OPENING/CLOSING CONTROL DEVICE FOR TARGET FORCE-SENSITIVE ION CHANNEL THAT GENERATES SOUND WAVE PATTERN BY USING RESONANCE FREQUENCY(IES), AND BRAIN FUNCTION CONTROL DEVICE” (UIF (University Industry Foundation), Yonsei University, priority 2022, dated 2024).

Target: T1, Piezo1 ion channel (Mus musculus, UniProt E2JF22)
T1 construct: expressed in transfected cells; host or cells: HEK293
Assay: c-Fos immunostaining of cellular activation in HEK293 cells expressing Piezo1
Assay type: cell-based
Conditions: Yoda1 10 µM, Fig. 2, Group F
Method: As a model system, HEK293 cells were utilized, and the Piezo1 ion channel, a mechanosensitive ion channel, was expressed in these cells to enable responsiveness to mechanical forces. To achieve this, 5×10^5 cells were seeded in a 60 mm dish, and 5 µg of CMV-Piezo1 plasmid was transfected using Lipofectamine 3000, following the standard protocol.
HEK293 cells expressing Piezo1 were then exposed to two different ultrasound frequencies, 2.0 MHz and 6.25 MHz, for 10 minutes, corresponding to the resonance frequency(ies) of Piezo1 in HEK293 cells. The objective was to observe differences in cellular activation based on frequency. The extent of cellular activation was quantified by immunostaining for c-Fos, a reporter of intracellular calcium ion influx, and the number of activated cells was represented as a percentage.

T1 sequence (E2JF22 whole entry): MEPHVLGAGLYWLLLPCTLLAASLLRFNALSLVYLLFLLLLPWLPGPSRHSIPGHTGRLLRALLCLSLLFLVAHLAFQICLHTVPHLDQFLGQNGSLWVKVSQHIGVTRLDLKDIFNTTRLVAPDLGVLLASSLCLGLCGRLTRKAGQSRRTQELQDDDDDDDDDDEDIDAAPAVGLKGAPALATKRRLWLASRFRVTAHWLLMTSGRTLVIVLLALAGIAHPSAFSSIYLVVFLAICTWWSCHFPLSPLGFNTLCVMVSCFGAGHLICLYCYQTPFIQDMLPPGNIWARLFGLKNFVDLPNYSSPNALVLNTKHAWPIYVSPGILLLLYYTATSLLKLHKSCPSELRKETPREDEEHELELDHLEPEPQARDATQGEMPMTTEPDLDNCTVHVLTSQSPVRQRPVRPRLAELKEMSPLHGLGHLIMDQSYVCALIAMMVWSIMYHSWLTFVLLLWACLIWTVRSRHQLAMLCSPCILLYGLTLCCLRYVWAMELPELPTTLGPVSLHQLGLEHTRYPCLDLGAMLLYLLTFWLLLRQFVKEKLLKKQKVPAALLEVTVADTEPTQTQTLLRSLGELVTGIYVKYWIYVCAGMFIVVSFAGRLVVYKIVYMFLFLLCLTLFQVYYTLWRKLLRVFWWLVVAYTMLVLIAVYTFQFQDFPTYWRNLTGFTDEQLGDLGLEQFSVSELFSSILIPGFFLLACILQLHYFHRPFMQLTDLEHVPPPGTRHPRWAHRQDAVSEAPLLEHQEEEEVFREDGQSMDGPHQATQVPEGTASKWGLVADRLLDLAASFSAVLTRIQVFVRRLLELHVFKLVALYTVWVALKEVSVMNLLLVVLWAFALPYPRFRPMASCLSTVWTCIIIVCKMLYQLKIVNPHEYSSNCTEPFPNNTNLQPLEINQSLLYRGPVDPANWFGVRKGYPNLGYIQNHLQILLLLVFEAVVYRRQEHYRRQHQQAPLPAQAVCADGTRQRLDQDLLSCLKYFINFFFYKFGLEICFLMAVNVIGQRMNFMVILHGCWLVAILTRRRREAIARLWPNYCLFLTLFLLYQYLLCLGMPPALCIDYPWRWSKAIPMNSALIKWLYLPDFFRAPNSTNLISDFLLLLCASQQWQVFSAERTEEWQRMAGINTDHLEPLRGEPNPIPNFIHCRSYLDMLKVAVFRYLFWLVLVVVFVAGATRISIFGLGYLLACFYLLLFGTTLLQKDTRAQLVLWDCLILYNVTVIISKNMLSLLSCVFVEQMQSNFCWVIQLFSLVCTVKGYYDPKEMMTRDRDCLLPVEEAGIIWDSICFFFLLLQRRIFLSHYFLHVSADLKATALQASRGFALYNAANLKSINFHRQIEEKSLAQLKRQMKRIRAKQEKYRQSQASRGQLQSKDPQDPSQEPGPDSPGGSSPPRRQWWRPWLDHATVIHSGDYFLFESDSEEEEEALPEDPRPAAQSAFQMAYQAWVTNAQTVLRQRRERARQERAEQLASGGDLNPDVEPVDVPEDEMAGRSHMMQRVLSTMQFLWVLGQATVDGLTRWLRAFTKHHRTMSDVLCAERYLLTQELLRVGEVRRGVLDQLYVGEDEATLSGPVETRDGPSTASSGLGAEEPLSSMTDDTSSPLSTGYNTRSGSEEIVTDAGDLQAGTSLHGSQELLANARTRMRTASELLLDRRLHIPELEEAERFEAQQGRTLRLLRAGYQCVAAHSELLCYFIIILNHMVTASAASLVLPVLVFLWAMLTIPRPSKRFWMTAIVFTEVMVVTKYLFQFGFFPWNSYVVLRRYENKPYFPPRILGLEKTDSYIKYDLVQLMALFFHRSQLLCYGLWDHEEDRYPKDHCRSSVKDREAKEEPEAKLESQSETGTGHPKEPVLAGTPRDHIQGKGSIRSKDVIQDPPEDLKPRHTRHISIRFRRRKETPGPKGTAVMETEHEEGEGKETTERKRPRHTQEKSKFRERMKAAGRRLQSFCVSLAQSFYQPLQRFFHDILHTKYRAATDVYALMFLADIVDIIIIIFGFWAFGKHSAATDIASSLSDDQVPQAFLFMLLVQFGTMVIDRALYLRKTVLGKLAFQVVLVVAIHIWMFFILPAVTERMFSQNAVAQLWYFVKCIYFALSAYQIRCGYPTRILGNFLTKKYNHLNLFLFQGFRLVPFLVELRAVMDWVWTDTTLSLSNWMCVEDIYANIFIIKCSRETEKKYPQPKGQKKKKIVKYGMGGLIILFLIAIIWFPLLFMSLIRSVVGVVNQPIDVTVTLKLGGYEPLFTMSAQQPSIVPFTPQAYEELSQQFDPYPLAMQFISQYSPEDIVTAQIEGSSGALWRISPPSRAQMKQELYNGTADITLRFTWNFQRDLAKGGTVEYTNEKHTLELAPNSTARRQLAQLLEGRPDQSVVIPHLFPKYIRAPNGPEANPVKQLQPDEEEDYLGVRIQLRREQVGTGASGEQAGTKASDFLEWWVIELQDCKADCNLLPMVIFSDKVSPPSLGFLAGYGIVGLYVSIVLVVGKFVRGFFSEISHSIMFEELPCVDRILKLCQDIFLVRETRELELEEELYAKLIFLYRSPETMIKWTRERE

activation (percentage of activated cells, c-Fos): 74%
SMILES: Clc1cccc(Cl)c1CSc1nnc(-c2cnccn2)s1 [Yoda1]
